Measured values taken from PubChem BioAssay AID1963854 (Molecular Pharmacology Branch, DTP, NCI, 2024).
pIC50: −log10 of the molar value.

Test system: 186277-243-T-J2-PDC complex spheroid viability
Test: Anticancer human tumor 186277-243-T-J2-PDC patient-derived colon adenocarcinoma cell line growth inhibition [POLQ]
Conditions: for pIC50: curve of first compound; for viability, T/C: stronger effect = lower value
How it was run: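 Three-cell-type spheroids modelling solid tumor plus stroma served as the readout system; POL inhibitors were tested individually and in combination, concentration ranges set by clinical Cmax where known.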

[1] = second compound 0.0316 µM, first compound 0.0316 µM
[2] = second compound 0.0316 µM, first compound 0.1 µM
[3] = second compound 0.0316 µM, first compound 0.316 µM
[4] = second compound 0.0316 µM, first compound 1 µM
[5] = second compound 0.0316 µM, first compound 3.16 µM
[6] = second compound 0.0316 µM, first compound 10 µM
[7] = second compound 0.1 µM, first compound 0.0316 µM
[8] = second compound 0.1 µM, first compound 0.1 µM
[9] = second compound 0.1 µM, first compound 0.316 µM
[10] = second compound 0.1 µM, first compound 1 µM
[11] = second compound 0.1 µM, first compound 3.16 µM
[12] = second compound 0.1 µM, first compound 10 µM
[13] = second compound 0.316 µM, first compound 0.0316 µM
[14] = second compound 0.316 µM, first compound 0.1 µM
[15] = second compound 0.316 µM, first compound 0.316 µM
[16] = second compound 0.316 µM, first compound 1 µM
[17] = second compound 0.316 µM, first compound 3.16 µM
[18] = second compound 0.316 µM, first compound 10 µM
[19] = second compound 1 µM, first compound 0.0316 µM
[20] = second compound 1 µM, first compound 0.1 µM
[21] = second compound 1 µM, first compound 0.316 µM
[22] = second compound 1 µM, first compound 1 µM
[23] = second compound 1 µM, first compound 3.16 µM
[24] = second compound 1 µM, first compound 10 µM
[25] = second compound 3.16 µM, first compound 0.0316 µM
[26] = second compound 3.16 µM, first compound 0.1 µM
[27] = second compound 3.16 µM, first compound 0.316 µM
[28] = second compound 3.16 µM, first compound 1 µM
[29] = second compound 3.16 µM, first compound 3.16 µM
[30] = second compound 3.16 µM, first compound 10 µM
[31] = second compound 10 µM, first compound 0.0316 µM
[32] = second compound 10 µM, first compound 0.1 µM
[33] = second compound 10 µM, first compound 0.316 µM
[34] = second compound 10 µM, first compound 1 µM
[35] = second compound 10 µM, first compound 3.16 µM
[36] = second compound 10 µM, first compound 10 µM
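Also: spheroids exposed to compounds for seven days.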
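For viability, T/C in this document: 100% = DMSO vehicle control viability.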

With O=c1[nH]cc(F)c(=O)[nH]1 + Nc1ccc(C#CCN(C(=O)Cc2ncc(C(F)(F)F)cc2C(F)(F)F)c2ccc(F)cc2)nn1 the pIC50 (second compound 0.0316 µM) was less than 5.00, the pIC50 (second compound 0.1 µM) was less than 5.00 and the pIC50 (second compound 0.316 µM) was less than 5.00. For the same compound, the pIC50 (second compound 1 µM) was less than 5.00, the pIC50 (second compound 3.16 µM) was less than 5.00 and the pIC50 (second compound 10 µM) was less than 5.00. The viability, T/C [1] was 102%, the viability, T/C [2] was 94.3% and the viability, T/C [3] was 103%. The viability, T/C [4] was 102%, the viability, T/C [5] was 97.4% and the viability, T/C [6] was 64.8%. It also gave a viability, T/C [7] of 97.7%, a viability, T/C [8] of 112% and a viability, T/C [9] of 97.4%. The viability, T/C [10] was 107%, the viability, T/C [11] was 103% and the viability, T/C [12] was 67.3%. The viability, T/C [13] was 95.9%, the viability, T/C [14] was 103% and the viability, T/C [15] was 101%. It also gave a viability, T/C [16] of 88.3%, a viability, T/C [17] of 97.3% and a viability, T/C [18] of 65.6%. For the same compound, the viability, T/C [19] was 98.8%, the viability, T/C [20] was 92.6% and the viability, T/C [21] was 109%. The viability, T/C [22] was 87.6%, the viability, T/C [23] was 107% and the viability, T/C [24] was 63.1%. For the same compound, the viability, T/C [25] was 103%, the viability, T/C [26] was 96.5% and the viability, T/C [27] was 109%. The viability, T/C [28] was 106%, the viability, T/C [29] was 104% and the viability, T/C [30] was 61%. For the same compound, the viability, T/C [31] was 109%, the viability, T/C [32] was 106% and the viability, T/C [33] was 101%. For the same compound, the viability, T/C [34] was 102%, the viability, T/C [35] was 90.6% and the viability, T/C [36] was 52.4%.
In the case of O=C(Nc1ccc(O)c(NS(=O)(=O)c2ccc(F)cc2)c1)c1ccc(-c2ccccc2)cc1 + COC1C(OC(N)=O)C(O)C(Oc2ccc3c(O)c(NC(=O)c4ccc(O)c(CC=C(C)C)c4)c(=O)oc3c2C)OC1(C)C, the pIC50 (second compound 0.0316 µM) was less than 5.00, the pIC50 (second compound 0.1 µM) was less than 5.00 and the pIC50 (second compound 0.316 µM) was less than 5.00. For the same compound, the pIC50 (second compound 1 µM) was less than 5.00, the pIC50 (second compound 3.16 µM) was less than 5.00 and the pIC50 (second compound 10 µM) was less than 5.00. The viability, T/C [1] was 89%, the viability, T/C [2] was 113% and the viability, T/C [3] was 107%. For the same compound, the viability, T/C [4] was 99%, the viability, T/C [5] was 105% and the viability, T/C [6] was 94.3%. It also gave a viability, T/C [7] of 107%, a viability, T/C [8] of 105% and a viability, T/C [9] of 102%. The viability, T/C [10] was 98.2%, the viability, T/C [11] was 107% and the viability, T/C [12] was 93.1%. For the same compound, the viability, T/C [13] was 96.2%, the viability, T/C [14] was 104% and the viability, T/C [15] was 116%. For the same compound, the viability, T/C [16] was 104%, the viability, T/C [17] was 119% and the viability, T/C [18] was 96%. For the same compound, the viability, T/C [19] was 90.8%, the viability, T/C [20] was 101% and the viability, T/C [21] was 116%. For the same compound, the viability, T/C [22] was 95%, the viability, T/C [23] was 125% and the viability, T/C [24] was 99.4%. It also gave a viability, T/C [25] of 90.1%, a viability, T/C [26] of 103% and a viability, T/C [27] of 111%. For the same compound, the viability, T/C [28] was 103%, the viability, T/C [29] was 105% and the viability, T/C [30] was 91.5%. For the same compound, the viability, T/C [31] was 91.9%, the viability, T/C [32] was 111% and the viability, T/C [33] was 103%. For the same compound, the viability, T/C [34] was 103%, the viability, T/C [35] was 108% and the viability, T/C [36] was 101%.
Compound CNCc1ccc(-c2[nH]c3cc(F)cc4c3c2CCNC4=O)cc1 + Cc1cccc(N(C)C(=O)C2C(O)CCN2c2nc(C)cc(C(F)(F)F)c2C#N)c1 has a pIC50 (second compound 0.0316 µM) of less than 5.00, a pIC50 (second compound 0.1 µM) of less than 5.00 and a pIC50 (second compound 0.316 µM) of less than 5.00. For the same compound, the pIC50 (second compound 1 µM) was less than 5.00, the pIC50 (second compound 3.16 µM) was less than 5.00 and the pIC50 (second compound 10 µM) was less than 5.00. For the same compound, the viability, T/C [1] was 105%, the viability, T/C [2] was 97.5% and the viability, T/C [3] was 104%. The viability, T/C [4] was 102%, the viability, T/C [5] was 102% and the viability, T/C [6] was 97.5%. The viability, T/C [7] was 81.2%, the viability, T/C [8] was 98.9% and the viability, T/C [9] was 107%. It also gave a viability, T/C [10] of 108%, a viability, T/C [11] of 115% and a viability, T/C [12] of 91.1%. It also gave a viability, T/C [13] of 103%, a viability, T/C [14] of 109% and a viability, T/C [15] of 94.8%. For the same compound, the viability, T/C [16] was 105%, the viability, T/C [17] was 93.8% and the viability, T/C [18] was 91.7%. It also gave a viability, T/C [19] of 102%, a viability, T/C [20] of 105% and a viability, T/C [21] of 95.2%. For the same compound, the viability, T/C [22] was 95%, the viability, T/C [23] was 105% and the viability, T/C [24] was 76.9%. For the same compound, the viability, T/C [25] was 100%, the viability, T/C [26] was 108% and the viability, T/C [27] was 107%. For the same compound, the viability, T/C [28] was 105%, the viability, T/C [29] was 115% and the viability, T/C [30] was 78.4%. It also gave a viability, T/C [31] of 106%, a viability, T/C [32] of 98.4% and a viability, T/C [33] of 107%. The viability, T/C [34] was 90.1%, the viability, T/C [35] was 94.2% and the viability, T/C [36] was 69.4%.
